The values that follow come from ChEMBL document CHEMBL2021844, “The central valine concept provides an entry in a new class of non peptide inhibitors of the p53-MDM2 interaction” (Bioorg Med Chem Lett, 2012).

Experiment [1] deals with Tumour suppressor p53/oncoprotein Mdm2 (Homo sapiens, UniProt Q00987). The experiment is described as follows: Inhibition of p53 (18 to 26)-MDM2 (2 to 188) interaction using fluorescent dye Cy5 by TR-FRET assay. It counts as protein assay.
Experiment [2] addresses T1, Protein Mdm4 (Homo sapiens, UniProt O15151).
T1 sequence (O15151 whole entry): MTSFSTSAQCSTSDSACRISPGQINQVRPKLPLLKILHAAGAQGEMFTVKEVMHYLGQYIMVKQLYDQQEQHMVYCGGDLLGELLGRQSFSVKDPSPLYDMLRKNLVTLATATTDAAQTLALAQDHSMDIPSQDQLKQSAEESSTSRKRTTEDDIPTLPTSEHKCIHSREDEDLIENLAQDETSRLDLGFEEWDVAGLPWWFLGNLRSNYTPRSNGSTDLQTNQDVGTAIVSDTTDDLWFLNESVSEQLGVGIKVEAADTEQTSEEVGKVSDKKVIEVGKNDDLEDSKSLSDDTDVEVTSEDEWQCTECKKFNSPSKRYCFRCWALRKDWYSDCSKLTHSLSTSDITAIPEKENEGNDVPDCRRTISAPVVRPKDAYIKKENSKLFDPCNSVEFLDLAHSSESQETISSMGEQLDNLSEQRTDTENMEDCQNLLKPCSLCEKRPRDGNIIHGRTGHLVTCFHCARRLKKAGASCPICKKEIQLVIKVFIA
The experiment is described as follows: Inhibition of p53 derived peptide binding to MDM4 using fluorescent dye Cy5 by TR-FRET assay.

In experiment [3] the test system is SJSA-1. The experiment is described as follows: Antiproliferative activity against human SJSA1 cells expressing p53. It counts as functional, cell-based.
The subject of experiment [4] is SJSA-1. Description: Ratio of IC50 for human SJSA1 cells expressing p53 to IC50 for human p53 deficient SAOS2 cells. It counts as functional.

Chain of Tumour suppressor p53/oncoprotein Mdm2 (P04637 whole entry): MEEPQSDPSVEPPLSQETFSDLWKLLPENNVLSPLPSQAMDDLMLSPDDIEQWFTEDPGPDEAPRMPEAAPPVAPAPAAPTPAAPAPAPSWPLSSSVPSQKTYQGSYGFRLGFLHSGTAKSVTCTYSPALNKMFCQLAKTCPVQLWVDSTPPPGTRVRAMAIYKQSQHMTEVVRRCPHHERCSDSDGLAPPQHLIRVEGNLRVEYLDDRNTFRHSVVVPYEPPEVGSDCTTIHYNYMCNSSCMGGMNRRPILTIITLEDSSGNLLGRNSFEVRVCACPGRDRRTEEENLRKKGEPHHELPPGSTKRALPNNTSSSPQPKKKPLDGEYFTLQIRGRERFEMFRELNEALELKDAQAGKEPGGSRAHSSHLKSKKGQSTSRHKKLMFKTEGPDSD
Chain of Tumour suppressor p53/oncoprotein Mdm2 (Q00987 whole entry): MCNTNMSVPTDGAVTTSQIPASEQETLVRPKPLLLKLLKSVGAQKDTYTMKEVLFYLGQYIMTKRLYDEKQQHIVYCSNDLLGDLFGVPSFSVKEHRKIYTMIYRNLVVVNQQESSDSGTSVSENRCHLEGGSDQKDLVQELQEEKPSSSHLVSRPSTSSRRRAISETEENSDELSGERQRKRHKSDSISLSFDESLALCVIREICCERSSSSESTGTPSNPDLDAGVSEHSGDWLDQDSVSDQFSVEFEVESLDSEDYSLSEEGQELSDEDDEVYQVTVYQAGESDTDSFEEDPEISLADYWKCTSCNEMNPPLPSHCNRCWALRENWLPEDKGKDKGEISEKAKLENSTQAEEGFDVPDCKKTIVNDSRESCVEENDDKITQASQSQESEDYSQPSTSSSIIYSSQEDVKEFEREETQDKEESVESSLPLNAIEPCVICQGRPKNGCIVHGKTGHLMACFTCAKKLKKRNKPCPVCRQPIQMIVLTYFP

As for `COc1ccc(Cn2c(C)nc(Cc3ccc(N)cc3)c2Cc2ccc(Cl)cc2)cc1`, the figures for the IC50 in experiment [1] and in experiment [2] were 3.4 µM and 70 µM, respectively.

Take `CC(C)CCn1cnc(-c2ccccc2)c1-c1c[nH]c2cc(Cl)ccc12`: the half-maximal inhibitory concentration (IC50) in experiment [1] was found to be 0.9 µM; in experiment [2], 18 µM.

For the compound `Clc1ccc(Cn2cnc(-c3ccccc3)c2-c2c[nH]c3cc(Cl)ccc23)cc1`, the IC50 came to 0.2 µM in experiment [1] and 22 µM in experiment [2].

Consider `O=C(NCCN1CCOCC1)c1[nH]c2cc(Cl)ccc2c1-c1c(-c2ccccc2)ncn1Cc1ccc(Cl)cc1`, for which the IC50 in experiment [3] worked out at 7.3 µM; in experiment [2] it was 19 µM. In experiment [4], the “Ratio IC50” value stood at 3.
